PubChem BioAssay (NCI)
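Each compound was tested at five concentrations against cells in 96-well plates for 48 hours. The concentration for full growth arrest is given as TGI.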

How the values were obtained:
Assay in all cases: inhibition of tumour cell growth, NCI panel, 48 h
786-0 renal = system: 786-0 renal
A498 renal = system: A498 renal
A549 NSCLC = system: A549 NSCLC
ACHN renal = system: ACHN renal
BT-549 breast = system: BT-549 breast
CAKI-1 renal = system: CAKI-1 renal
COLO 205 colon = system: COLO 205 colon
DU-145 prostate = system: DU-145 prostate
EKVX NSCLC = system: EKVX NSCLC
HCC-2998 colon = system: HCC-2998 colon
HCT-116 colon = system: HCT-116 colon
HCT-15 colon = system: HCT-15 colon
HL-60(TB) leukemia = system: HL-60(TB) leukemia
HOP-92 NSCLC = system: HOP-92 NSCLC
HS 578T breast = system: HS 578T breast
HT29 colon = system: HT29 colon
IGROV1 ovarian = system: IGROV1 ovarian
K-562 leukemia = system: K-562 leukemia
KM12 colon = system: KM12 colon
LOX IMVI melanoma = system: LOX IMVI melanoma
M14 melanoma = system: M14 melanoma
MALME-3M melanoma = system: MALME-3M melanoma
MCF7 breast = system: MCF7 breast
MDA-MB-231 breast = system: MDA-MB-231 breast
MDA-MB-435 = system: MDA-MB-435
MDA-N = system: MDA-N
MOLT-4 leukemia = system: MOLT-4 leukemia
NCI-H226 lung = system: NCI-H226 lung
NCI-H23 lung = system: NCI-H23 lung
NCI-H522 lung = system: NCI-H522 lung
NCI/ADR-RES ovarian = system: NCI/ADR-RES ovarian
OVCAR-4 ovarian = system: OVCAR-4 ovarian
OVCAR-5 ovarian = system: OVCAR-5 ovarian
OVCAR-8 ovarian = system: OVCAR-8 ovarian
PC-3 prostate = system: PC-3 prostate
RPMI-8226 leukemia = system: RPMI-8226 leukemia
SF-268 CNS = system: SF-268 CNS
SF-539 CNS = system: SF-539 CNS
SK-MEL-2 melanoma = system: SK-MEL-2 melanoma
SK-MEL-28 melanoma = system: SK-MEL-28 melanoma
SK-MEL-5 melanoma = system: SK-MEL-5 melanoma
SK-OV-3 ovarian = system: SK-OV-3 ovarian
SNB-19 CNS = system: SNB-19 CNS
SNB-75 CNS = system: SNB-75 CNS
SR leukemia = system: SR leukemia
SW-620 colon = system: SW-620 colon
TK-10 renal = system: TK-10 renal
U251 CNS = system: U251 CNS
UACC-257 melanoma = system: UACC-257 melanoma
UACC-62 melanoma = system: UACC-62 melanoma
UO-31 renal = system: UO-31 renal
HOP-62 NSCLC = system: HOP-62 NSCLC
NCI-H460 lung = system: NCI-H460 lung
OVCAR-3 ovarian = system: OVCAR-3 ovarian
RXF 393 renal = system: RXF 393 renal
SF-295 CNS = system: SF-295 CNS
SN12C renal = system: SN12C renal

SMILES: COC(=O)c1ccc(NCC2=CC(=O)C=CC2=O)cc1
- TGI (786-0 renal): 7.86 µM
- TGI (A498 renal): 27.6 µM
- TGI (A549 NSCLC): 41.8 µM
- TGI (ACHN renal): 27 µM
- TGI (BT-549 breast): 27 µM
- TGI (CAKI-1 renal): 7.68 µM
- TGI (COLO 205 colon): 8.67 µM
- TGI (DU-145 prostate): 28.8 µM
- TGI (EKVX NSCLC): 28.2 µM
- TGI (HCC-2998 colon): 38.8 µM
- TGI (HCT-116 colon): 30.4 µM
- TGI (HCT-15 colon): 25.9 µM
- TGI (HL-60(TB) leukemia): 5.5 µM
- TGI (HOP-92 NSCLC): 10.5 µM
- TGI (HS 578T breast): > 100 µM
- TGI (HT29 colon): 38.8 µM
- TGI (IGROV1 ovarian): 34.1 µM
- TGI (K-562 leukemia): 6.95 µM
- TGI (KM12 colon): 28.6 µM
- TGI (LOX IMVI melanoma): 17.8 µM
- TGI (M14 melanoma): 15.8 µM
- TGI (MALME-3M melanoma): 13.9 µM
- TGI (MCF7 breast): 30.8 µM
- TGI (MDA-MB-231 breast): 30.7 µM
- TGI (MDA-MB-435): 24.3 µM
- TGI (MDA-N): 24.2 µM
- TGI (MOLT-4 leukemia): 9.58 µM
- TGI (NCI-H226 lung): 37.2 µM
- TGI (NCI-H23 lung): 29.8 µM
- TGI (NCI-H522 lung): 3.11 µM
- TGI (NCI/ADR-RES ovarian): 35.5 µM
- TGI (OVCAR-4 ovarian): 26.5 µM
- TGI (OVCAR-5 ovarian): 32.3 µM
- TGI (OVCAR-8 ovarian): 39.9 µM
- TGI (PC-3 prostate): 37 µM
- TGI (RPMI-8226 leukemia): 7.22 µM
- TGI (SF-268 CNS): 28.8 µM
- TGI (SF-539 CNS): 24.5 µM
- TGI (SK-MEL-2 melanoma): 37.4 µM
- TGI (SK-MEL-28 melanoma): 30.2 µM
- TGI (SK-MEL-5 melanoma): 32.5 µM
- TGI (SK-OV-3 ovarian): 30.3 µM
- TGI (SNB-19 CNS): 28.2 µM
- TGI (SNB-75 CNS): 30.3 µM
- TGI (SR leukemia): 61 µM
- TGI (SW-620 colon): 25.9 µM
- TGI (TK-10 renal): 22.7 µM
- TGI (U251 CNS): 28.7 µM
- TGI (UACC-257 melanoma): 25.7 µM
- TGI (UACC-62 melanoma): 29 µM
- TGI (UO-31 renal): 19.5 µM

SMILES: CC[C@H]1C=CCC[C@@]2(C[C@@H]3CC[C@H]4[C@H](C(=O)OCCCCCCCCCCCCCCCC(=O)N(CCCN)C[C@@H](O)CCN)[C@]5(CCC[C@@H](C)O5)NC(=[N+]34)N2)O1
- TGI (786-0 renal): 1.86 µM
- TGI (A498 renal): 3.09 µM
- TGI (A549 NSCLC): 1.74 µM
- TGI (ACHN renal): 1.84 µM
- TGI (BT-549 breast): 4.27 µM
- TGI (CAKI-1 renal): 1.87 µM
- TGI (COLO 205 colon): 1.3 µM
- TGI (DU-145 prostate): 2.3 µM
- TGI (EKVX NSCLC): 2.66 µM
- TGI (HCC-2998 colon): 1.82 µM
- TGI (HCT-116 colon): 1.31 µM
- TGI (HCT-15 colon): 2.18 µM
- TGI (HL-60(TB) leukemia): 1.35 µM
- TGI (HOP-62 NSCLC): 2.69 µM
- TGI (HOP-92 NSCLC): 1.45 µM
- TGI (HS 578T breast): 4.26 µM
- TGI (HT29 colon): 1.48 µM
- TGI (IGROV1 ovarian): 2.02 µM
- TGI (K-562 leukemia): 1.05 µM
- TGI (KM12 colon): 1.82 µM
- TGI (LOX IMVI melanoma): 1.38 µM
- TGI (M14 melanoma): 0.495 µM
- TGI (MALME-3M melanoma): 0.806 µM
- TGI (MCF7 breast): 1.51 µM
- TGI (MDA-MB-435): 1.2 µM
- TGI (MDA-N): 1.51 µM
- TGI (MOLT-4 leukemia): 1.29 µM
- TGI (NCI-H226 lung): 3.32 µM
- TGI (NCI-H23 lung): 3.21 µM
- TGI (NCI-H460 lung): 1.87 µM
- TGI (NCI-H522 lung): 2.72 µM
- TGI (NCI/ADR-RES ovarian): 4.81 µM
- TGI (OVCAR-3 ovarian): 3.02 µM
- TGI (OVCAR-4 ovarian): 2.44 µM
- TGI (OVCAR-5 ovarian): 1.78 µM
- TGI (OVCAR-8 ovarian): 2.92 µM
- TGI (PC-3 prostate): 2.06 µM
- TGI (RPMI-8226 leukemia): 0.833 µM
- TGI (RXF 393 renal): 3.42 µM
- TGI (SF-268 CNS): 3.46 µM
- TGI (SF-295 CNS): 3.31 µM
- TGI (SF-539 CNS): 3.32 µM
- TGI (SK-MEL-2 melanoma): 2.06 µM
- TGI (SK-MEL-28 melanoma): 3.98 µM
- TGI (SK-MEL-5 melanoma): 1.31 µM
- TGI (SK-OV-3 ovarian): 3.28 µM
- TGI (SN12C renal): 2.19 µM
- TGI (SNB-19 CNS): 2.93 µM
- TGI (SR leukemia): 1.23 µM
- TGI (SW-620 colon): 3.51 µM
- TGI (TK-10 renal): 2.98 µM
- TGI (U251 CNS): 1.44 µM
- TGI (UACC-257 melanoma): 2.02 µM
- TGI (UACC-62 melanoma): 0.412 µM
- TGI (UO-31 renal): 1.69 µM
